According to DBAASP:
≈ marks a conversion by molar mass, not a printed value.

Key:
Experiment in all cases: ≥ marks a high value that may be exact or a test limit, other limits are often not marked, values filed in µg/mL are converted to µM
[1] = system: Staphylococcus aureus NCTC 10788
[2] = system: Klebsiella pneumoniae ATCC 700603
[3] = system: Escherichia coli ATCC 25922
[4] = system: Bacillus subtilis ATCC 23857
[5] = system: Pseudomonas aeruginosa ATCC 9027
[6] = system: Staphylococcus aureus ATCC 25923
[7] = system: Escherichia coli B
[8] = system: Pseudomonas aeruginosa
[9] = system: Bacillus subtilis 168
[10] = system: Staphylococcus aureus
[11] = system: Staphylococcus aureus NCTC 8325
[12] = system: Candida albicans ATCC 90028

CC(C)C[C@H](NC(=O)[C@H](CC(C)C)NC(=O)CNC(=O)CNC(=O)[C@H](CC(C)C)NC(=O)[C@H](CC(C)C)NC(=O)CNC(=O)[C@H](CC(C)C)NC(=O)[C@@H](N)Cc1ccccc1)C(N)=O [FLGLLGGLL]
MIC [1]: ≥ 284 µM

CC[C@H](C)[C@H](NC(=O)[C@H](CCCCN)NC(=O)[C@H](CCCCN)NC(=O)[C@H](C)NC(=O)[C@@H](NC(=O)[C@H](C)NC(=O)[C@H](CC(C)C)NC(=O)[C@H](CC(C)C)NC(=O)[C@H](C)NC(=O)[C@H](CCCCN)NC(=O)[C@H](CC(C)C)NC(=O)[C@H](C)NC(=O)[C@@H](N)CC(C)C)C(C)C)C(=O)N[C@@H](CC(C)C)C(N)=O [LALKALLAVAKKIL]
MIC [2]: 8 µM (≈ 11.7 µg/mL)
MIC [3]: 4 µM (≈ 5.86 µg/mL)
MIC [4]: 4 µM (≈ 5.86 µg/mL)
MIC [5]: 8 µM (≈ 11.7 µg/mL)
MIC [6]: 4 µM (≈ 5.86 µg/mL)

CC[C@H](C)[C@H](NC(=O)[C@H](Cc1cnc[nH]1)NC(=O)[C@H](CCCCN)NC(=O)[C@H](CC(C)C)NC(=O)[C@H](CC(C)C)NC(=O)[C@H](CO)NC(=O)[C@H](CCCCN)NC(=O)[C@H](Cc1c[nH]c2ccccc12)NC(=O)[C@H](CCCCN)NC(=O)CN)C(=O)N[C@@H](CC(C)C)C(=O)N[C@@H](CCCCN)C(N)=O [GKWKSLLKHILK]
MIC [7]: 3.7 µM (≈ 5.36 µg/mL)
MIC [8]: 34.2 µM (≈ 49.6 µg/mL)
MIC [9]: 1.2 µM (≈ 1.74 µg/mL)
MIC [10]: 20 µM (≈ 29 µg/mL)

CC[C@H](C)[C@H](NC(=O)[C@H](CC(C)C)NC(=O)[C@H](CC(C)C)NC(=O)[C@H](CC(N)=O)NC(=O)[C@H](CCCCN)NC(=O)[C@@H](NC(=O)[C@@H](NC(=O)CNC(=O)[C@H](CC(C)C)NC(=O)[C@@H](NC(=O)CN)C(C)C)[C@@H](C)O)C(C)C)C(=O)NCC(=O)N[C@@H](C)C(=O)NCC(=O)N[C@@H](CCCCN)C(=O)N[C@@H](CO)C(=O)N[C@@H](C)C(=O)N[C@@H](C)C(=O)N[C@@H](CCC(N)=O)C(=O)N[C@@H](CO)C(=O)N[C@H](C(=O)N[C@@H](CC(C)C)C(=O)N[C@@H](CCCCN)C(=O)N[C@H](C(=O)N[C@@H](CC(C)C)C(=O)N[C@@H](CO)C(=O)N[C@H]1CSSC[C@@H](C(=O)O)NC(=O)[C@H](CC(=O)O)NC(=O)[C@H](CC(N)=O)NC(=O)[C@H](CO)NC(=O)[C@H](CC(C)C)NC(=O)[C@H](CCCCN)NC1=O)[C@@H](C)O)C(C)C [GVLGTVKNLLIGAGKSAAQSVLKTLSCKLSNDC]
MIC [3]: 6 µM (≈ 19.7 µg/mL)
MIC [11]: 25 µM (≈ 82.2 µg/mL)
MIC [12]: ≥ 100 µM

CC[C@H](C)[C@H](NC(=O)CN)C(=O)N[C@@H](Cc1c[nH]c2ccccc12)C(=O)N[C@@H](CC(=O)O)C(=O)N[C@H](C(=O)N[C@@H](CC(C)C)C(=O)N[C@@H](CCCCN)C(=O)N[C@@H](CC(N)=O)C(=O)N[C@H](C(=O)NCC(=O)N[C@@H](CCCCN)C(=O)N[C@@H](C)C(=O)N[C@H](C(=O)N[C@@H](CC(C)C)C(=O)NCC(=O)N[C@@H](CCCCN)C(=O)N[C@H](C(=O)N[C@@H](CC(C)C)C(=O)N[C@@H](CCC(=O)O)C(=O)N[C@@H](CC(N)=O)C(=O)N[C@H](C(N)=O)C(C)C)C(C)C)C(C)C)C(C)C)[C@@H](C)O [GIWDTLKNVGKAVLGKVLENV]
MIC [3]: 12.5 µM (≈ 28.2 µg/mL)
MIC [11]: ≥ 50 µM

CC[C@H](C)[C@H](NC(=O)CN)C(=O)N[C@H](C(=O)N[C@@H](CCCN=C(N)N)C(=O)NCC(=O)N[C@H](C(=O)N[C@H](C(=O)N[C@@H](CCCN=C(N)N)C(=O)N[C@@H](CCCN=C(N)N)C(=O)N[C@H](C(=O)N[C@@H](CCCCN)C(=O)NCC(N)=O)[C@@H](C)CC)[C@@H](C)CC)[C@@H](C)CC)[C@@H](C)CC [GIIRGIIRRIKG]
MIC [3]: > 128 µM
MIC [4]: 8 µM (≈ 10.8 µg/mL)

CC[C@H](C)[C@H](NC(=O)[C@H](Cc1cnc[nH]1)NC(=O)[C@H](CCCCN)NC(=O)[C@H](CC(C)C)NC(=O)[C@H](CC(C)C)NC(=O)[C@H](CO)NC(=O)[C@H](CCC(N)=O)NC(=O)[C@H](Cc1c[nH]c2ccccc12)NC(=O)[C@H](CCCCN)NC(=O)CN)C(=O)N[C@@H](CC(C)C)C(=O)N[C@@H](CCCCN)C(N)=O [GKWQSLLKHILK]
MIC [7]: 8 µM (≈ 11.6 µg/mL)
MIC [8]: 56.7 µM (≈ 82.2 µg/mL)
MIC [9]: 2.2 µM (≈ 3.19 µg/mL)
MIC [10]: 25 µM (≈ 36.2 µg/mL)

CC[C@H](C)[C@@H]1NC(=O)[C@H](CC(C)C)NC(=O)[C@@H](NC(=O)[C@@H](NC(=O)[C@H](Cc2ccccc2)NC(=O)[C@H](CCCCN)NC(=O)[C@@H]2CCCN2C(=O)[C@@H](NC(=O)[C@H](CCSC)NC(=O)[C@H](CO)NC(=O)[C@H](C)NC(=O)[C@H](C)NC(=O)[C@H](CC(C)C)NC(=O)CNC(=O)[C@H](C)NC(=O)[C@H](CC(C)C)NC(=O)[C@H](CCSC)NC(=O)[C@@H]2CCCN2C(=O)[C@H](CC(C)C)NC(=O)[C@@H](N)Cc2ccccc2)C(C)C)C(C)C)CSSC[C@@H](C(=O)O)NC(=O)[C@H](CCCCN)NC(=O)[C@H](CCCCN)NC(=O)[C@H]([C@@H](C)O)NC1=O [FLPMLAGLAASMVPKFVCLITKKC]
MIC [3]: 16 µM (≈ 41.3 µg/mL)
MIC [11]: 8 µM (≈ 20.6 µg/mL)

CC[C@H](C)[C@H](NC(=O)[C@H](CCCCN)NC(=O)[C@H](CCCCN)NC(=O)[C@H](C)NC(=O)[C@@H](NC(=O)[C@H](C)NC(=O)[C@H](CC(C)C)NC(=O)[C@H](CC(C)C)NC(=O)[C@H](C)NC(=O)[C@H](CCCCN)NC(=O)[C@H](CC(C)C)NC(=O)[C@H](CC(N)=O)NC(=O)[C@@H](N)CC(C)C)C(C)C)C(=O)N[C@@H](C)C(N)=O [LNLKALLAVAKKIA]
MIC [2]: 16 µM (≈ 23.4 µg/mL)
MIC [3]: 8 µM (≈ 11.7 µg/mL)
MIC [4]: 8 µM (≈ 11.7 µg/mL)
MIC [5]: 32 µM (≈ 46.9 µg/mL)
MIC [6]: 32 µM (≈ 46.9 µg/mL)

CC[C@H](C)[C@H](NC(=O)[C@H](CO)NC(=O)[C@H](CC(C)C)NC(=O)[C@H](Cc1ccccc1)NC(=O)CN)C(=O)N[C@@H](CC(C)C)C(=O)N[C@@H](CCCCN)C(=O)N[C@@H](CCCCN)C(=O)N[C@H](C(=O)N[C@@H](CC(C)C)C(=O)N[C@@H](CCCCN)C(=O)N[C@H](C(=O)N[C@@H](CCSC)C(=O)N[C@@H](C)C(=O)N[C@@H](Cc1cnc[nH]1)C(=O)N[C@@H](CCSC)C(=O)N[C@@H](CCCCN)C(N)=O)C(C)C)C(C)C [GFLSILKKVLKVMAHMK]
MIC [7]: 1.8 µM (≈ 3.5 µg/mL)
MIC [8]: 27.5 µM (≈ 53.4 µg/mL)
MIC [9]: 0.9 µM (≈ 1.75 µg/mL)
MIC [10]: 5 µM (≈ 9.71 µg/mL)

CC[C@H](C)[C@H](NC(=O)CNC(=O)[C@H](CO)NC(=O)[C@H](CC(C)C)NC(=O)[C@H](CC(C)C)NC(=O)[C@H](CCCCN)NC(=O)CNC(=O)[C@@H](NC(=O)[C@@H](NC(=O)[C@@H]1CCCN1C(=O)[C@H](CC(C)C)NC(=O)[C@@H](NC(=O)[C@@H](NC(=O)[C@@H]1CCCN1C(=O)[C@H](CC(C)C)NC(=O)[C@@H](N)Cc1ccccc1)C(C)C)[C@@H](C)CC)C(C)C)[C@@H](C)CC)C(=O)N[C@@H](CC(C)C)C(N)=O [FLPVILPVIGKLLSGIL]
MIC [3]: > 50 µM
MIC [11]: 25 µM (≈ 44.8 µg/mL)

CC[C@H](C)[C@H](NC(=O)CN)C(=O)N[C@@H](CCCN=C(N)N)C(=O)N[C@@H](CCCN=C(N)N)C(=O)NCC(=O)N[C@H](C(=O)N[C@@H](CCCN=C(N)N)C(=O)N[C@@H](CCCN=C(N)N)C(=O)N[C@H](C(=O)N[C@@H](CCCCN)C(=O)N[C@@H](CCCCN)C(=O)N[C@@H](CCCN=C(N)N)C(N)=O)[C@@H](C)CC)[C@@H](C)CC [GIRRGIRRIKKR]
MIC [3]: > 128 µM
MIC [4]: ≥ 128 µM

CC[C@H](C)[C@H](NC(=O)CN)C(=O)N[C@@H](CCCN=C(N)N)C(=O)N[C@@H](CCCN=C(N)N)C(=O)NCC(=O)N[C@H](C(=O)N[C@H](C(=O)N[C@@H](CCCN=C(N)N)C(=O)N[C@H](C(=O)N[C@H](C(=O)N[C@@H](CCCCN)C(=O)N[C@@H](CCCN=C(N)N)C(N)=O)[C@@H](C)CC)[C@@H](C)CC)[C@@H](C)CC)[C@@H](C)CC [GIRRGIIRIIKR]
MIC [3]: 64 µM (≈ 92.8 µg/mL)
MIC [4]: 16 µM (≈ 23.2 µg/mL)

CC[C@H](C)[C@H](NC(=O)[C@H](Cc1cnc[nH]1)NC(=O)[C@H](CCCCN)NC(=O)[C@H](CC(C)C)NC(=O)[C@H](Cc1c[nH]c2ccccc12)NC(=O)[C@H](CO)NC(=O)[C@H](CCSC)NC(=O)[C@H](Cc1c[nH]c2ccccc12)NC(=O)[C@H](CCCCN)NC(=O)CN)C(=O)N[C@@H](CC(C)C)C(=O)N[C@@H](CCCCN)C(N)=O [GKWMSWLKHILK]
MIC [7]: 3.9 µM (≈ 5.95 µg/mL)
MIC [8]: 13.5 µM (≈ 20.6 µg/mL)
MIC [9]: 1.5 µM (≈ 2.29 µg/mL)
MIC [10]: 10.1 µM (≈ 15.4 µg/mL)

CC[C@H](C)[C@@H]1NC(=O)[C@H](CCCCN)NC(=O)[C@@H](NC(=O)[C@H](C)NC(=O)[C@@H](NC(=O)[C@H](CC(C)C)NC(=O)CNC(=O)[C@H](CC(C)C)NC(=O)CNC(=O)[C@@H](NC(=O)[C@H](CCCCN)NC(=O)CNC(=O)[C@H](CC(C)C)NC(=O)[C@H](CC(N)=O)NC(=O)[C@H](CCCCN)NC(=O)[C@H](CC(C)C)NC(=O)[C@@H](NC(=O)[C@H](CO)NC(=O)[C@H](CC(C)C)NC(=O)[C@H](CCSC)NC(=O)[C@@H](N)CO)C(C)C)C(C)C)C(C)C)CSSC[C@@H](C(=O)O)NC(=O)[C@H](CCC(N)=O)NC(=O)[C@H](CCCCN)NC(=O)[C@H](CC(N)=O)NC1=O [SMLSVLKNLGKVGLGLVACKINKQC]
MIC [3]: 1.5 µM (≈ 3.92 µg/mL)
MIC [11]: ≥ 55 µM
MIC [12]: ≥ 58 µM

CC[C@H](C)[C@H](N)C(=O)N[C@@H](CC(C)C)C(=O)N1CCC[C@H]1C(=O)N[C@H](C(=O)N[C@@H](CC(C)C)C(=O)NCC(=O)N[C@@H](CC(N)=O)C(=O)N[C@@H](CC(C)C)C(=O)N[C@@H](CC(C)C)C(=O)N[C@@H](CC(N)=O)C(=O)NCC(=O)N[C@@H](CC(C)C)C(=O)N[C@@H](CC(C)C)C(N)=O)[C@@H](C)CC [ILPILGNLLNGLL]
MIC [3]: > 100 µM
MIC [11]: ≥ 100 µM
MIC [12]: ≥ 100 µM
